Experimental findings from patent US11077209B2, “Use of cerebral nitric oxide donors in the assessment of the extent of brain dysfunction following injury” (OXFORD UNIVERSITY INNOVATION LIMITED, priority 2016, dated 2021) are described below.

The test system of series [1] is patients after severe aneurysmal SAH (WFNS grade 3, 4 or 5). Particulars: for percentage change in ADR, median: (during infusion-baseline)/baseline x100; for mean percentage change from baseline ADR over time, FIG. 3: after commencement of the nitrite infusion. An excerpt: Patients aged 18-80 years admitted to the Neurosciences Intensive Care Unit (NICU) at the John Radcliffe Hospital, Oxford after having suffered severe aneurysmal SAH (WFNS grade 3, 4 or 5 at time of presentation) were eligible for inclusion in the study. There were no specific selection criteria apart from grade of SAH, and the absence of any exclusion criteria (see below).
Following definitive endovascular aneurysm treatment, each patient underwent a two hour period of continuous EEG monitoring (Porti 7 system, Twente Medical Systems International) on one occasion as soon as was practically possible after endovascular securing of the aneurysm.
(§1) Sedative drug levels, muscle relaxants and vasopressors were documented and changes in infusion rates were minimised for the duration of the recording.
We used a simplified EEG montage that aimed for compromise between stable maintenance of recording and full coverage of all vascular territories. Consequently, 7-13 unipolar EEG electrodes (depending on the presence of external ventricular drains and intracranial pressure (ICP) monitors) at the following positions defined according to the international 10-20 system: Cz, Fz, Pz, Fp1, Fp2, F3, F4, P3, P4, T3, T4, O1, O2. EEG data were digitized at a sampling rate of 2048 Hz, with a high pass filter of 0.5 Hz and a low pass filter of 30 Hz.
Each surviving patient was followed up at three to six months post-rupture. Telephone follow up was performed for patients who were unable to attend hospital due to their clinical status. Primary outcome was measured by the presence or absence of delayed ischemia. Long term outcome was assessed by modified Rankin scale at 3 months, via structured standardised questions in person or by telephone. The modified Rankin scale, is a commonly used grading system that measures the degree of disability or dependence in the daily activities of people who have suffered a neurological insult. Good outcome is defined as a score of 0-2, whereas poor outcome is defined as ≥3.
Inc.) code and the EEGLAB v13.4.3b analysis toolbox. Datasets were re-referenced to the average of bilateral mastoid reference electrodes and band pass filtered from 0.5 to 15 Hz using a linear finite impulse response (FIR) filter. Each EEG recording was visually inspected and artefacts were manually removed. Channels showing evidence of excessive amounts of noise were removed from each recording.
Spectral analysis was carried out using FieldTrip, a MATLAB software toolbox for EEG analysis. Data was windowed into 30-second segments that overlapped by 50%. Time-frequency analysis was performed using a multi-taper spectral estimation using discrete prolate spheroidal (Slepian) sequences with 14 tapers, and fast Fourier transform algorithm for each electrode channel. Five 60-second epochs were selected randomly from the first (baseline) and last thirty minutes of the recording (during infusion). The epochs were separated by at least 60 seconds to avoid autocorrelation. The corresponding frequency distribution in each epoch was identified, which enabled determination of power values in the following frequency bands: delta 1-4 Hz, alpha 8-12 Hz and total low frequency power 1-15 Hz.
Statistical analysis was carried out using R and the analysis package nlme. We applied a two level linear mixed effects multilevel model to the data to allow for within patient correlation due to repeated measures on each patient over time. […] A qqnorm plot was used to identify any outliers and these were subsequently eliminated from the model. Goodness of fit was assessed via Shapiro-Wilk normality tests on fixed and random effect residuals, and calculation of R^2 for the model.

The test system is the same in series [2]. As to the method: as §1
The patients also underwent simultaneous transcranial Doppler (TCD) monitoring. Insonation of the MCA M1 segment was performed unilaterally on the side with the best window using colour-coded duplex ultrasound (EZ-Dop, DWL; 2 Mz probe).
The patient's PETCO2, end-tidal O2, ABP and SpO2 were recorded continuously and collected on a Power-1401 data acquisition interface (Cambridge Electronic Design). […] Arterial CO2 values were collected once during the duration of the recording as part of routine clinical care.
Waveform analysis was performed using custom written MATLAB code, enabling calculation of average pre and during infusion values for TCD middle cerebral artery velocity (MCAV) ABP, PETCO2, end-tidal O2 and ICP.

Read-outs that look alike come from different tables or passages of the source.

On to `O=NO` [sodium nitrite], for which the “percentage change in ADR, median” value is “increases” in series [1] (good outcome group) and “no significant differences” in series [1] (poor outcome group). The “mean percentage change from baseline ADR over time, FIG. 3” value is on record as “increases” in series [1] (good outcome group) and “does not change” in series [1] (poor outcome group). Also, the “ADR during infusion, median” value in series [1] (good outcome group, baseline median 0.03) was 0.05. In addition, the “delta power response to a 1-hour infusion (discussion)” value in series [1] (patients with good outcome) is reported as “significant increase”. For the same compound, the “baseline versus during infusion ADR” value in series [1] (poor outcome patients (mRS >=3)) is reported as “no significant differences”. In addition, in series [2] (14 patients, from a mean MAP of 87 mmHg, p=0.026), the “mean MAP in response to sodium nitrite” value is 84 mmHg. Further, the “change in TCD, MCAV as a result of sodium nitrite infusion” value in series [2] (pre versus during infusion) was “no significant changes”. Moreover, the “change in ICP as a result of sodium nitrite infusion” value in series [2] (pre versus during infusion, 10 patients) is “no significant changes”. Moreover, the “change in end tidal CO2 as a result of sodium nitrite infusion” value in series [2] (pre versus during infusion, 13 patients) is “no significant changes”.
